We go through nine compounds from PubChem BioAssay (NCI).

Experiment in all cases: DTP human tumour cell line panel, 48 h
The test system of assay [1] is COLO 205 colon.
Assay [2] has as its system HOP-62 NSCLC.
Assay [3] has as its system HOP-92 NSCLC.
The test system of assay [4] is KM12 colon.
For assay [5], the system named is LXFL 529 NSCLC.
Assay [6] deals with MOLT-4 leukemia.
Assay [7] deals with NCI-H23 lung.
The subject of assay [8] is OVCAR-4 ovarian.
In assay [9] the test system is SF-539 CNS.
The test system of assay [10] is U251 CNS.
Assay [11] deals with UACC-62 melanoma.
For assay [12], the system named is RXF 393 renal.
Assay [13] concerns SF-295 CNS.
The test system of assay [14] is MDA-MB-435.
In assay [15] the test system is T-47D breast.

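Protocol summary: plate cells (96-well), add compound at 5 concentrations, incubate 48 h, interpolate endpoints linearly. The concentration for full growth arrest is given as TGI.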

`Cc1ccc(S(=O)(=O)c2c3[nH]c4ccccc4nc3n3c2nc2ccccc23)cc1`: the TGI in assay [1], in assay [2], in [3], in [4], in assay [5] and in assay [6] was greater than 100 µM each time. For the same compound, the TGI in [7], in [8], in assay [9], in assay [10] and in assay [11] was greater than 100 µM throughout.
On to `C=CCCCCCC(O)C(O)C/C=C\C/C=C\CC` (stereo not drawn), for which the concentration for total growth inhibition (TGI) in [1], in assay [2], in [3], in [4], in assay [5] and in assay [6] was greater than 18.8 µM each time. For the same compound, the TGI in assay [7], in [8], in assay [12], in [13], in [9] and in [10] was greater than 18.8 µM in each case. For the same compound, in assay [11], the TGI (in general, the concentration giving total growth inhibition) is greater than 18.8 µM.
For the compound `O=C1c2c(nc3ccccc3c2-c2ccccc2)CN1Nc1ccccc1`, the TGI in [1], in assay [2], in assay [3], in assay [4], in [5] and in assay [6] was greater than 100 µM throughout. Moreover, the TGI in assay [8] and in assay [11] was greater than 100 µM each time.
Consider `C/C(=N\NC(=S)NNC(=S)N(C)c1ccccc1)c1ccccn1`, for which the TGI was greater than 100 µM in [1]; greater than 100 µM in assay [2]; 26.6 µM in assay [3]; greater than 100 µM in [4]; greater than 100 µM in assay [5]; 25.6 µM in assay [14]. Besides, the TGI in assay [7] is greater than 100 µM; in [8], greater than 100 µM; in assay [12], 17 µM; in [13], greater than 100 µM; in [9], 11.1 µM; in [15], 72.8 µM. In [10], the TGI was greater than 100 µM.
With `N#CC(NNC(=O)c1ccccc1O)c1ccccc1` (stereo not drawn), the TGI in assay [1], in assay [2], in assay [3], in [4], in assay [5] and in assay [6] was greater than 100 µM throughout. Also, the TGI in assay [7] was greater than 100 µM; in [8], greater than 100 µM; in assay [12], 61.8 µM; in assay [13], greater than 100 µM; in assay [9] it was greater than 100 µM; in [10], greater than 100 µM. Moreover, the TGI in assay [11] came to 1.93 µM.
For `COc1ccc(CCc2ccccc2CC(=O)O)cc1`, the TGI in [1], in assay [3], in assay [4], in assay [5], in [6] and in assay [7] was greater than 100 µM in each case. Further, the TGI in [8], in [12], in assay [13], in assay [9], in assay [10] and in assay [11] was greater than 100 µM throughout.
Turning to `CC1=NN(C(=O)c2ccc(Cl)cc2)C(=O)/C1=C/c1ccc(O)cc1`, the TGI in assay [1], in [2], in assay [3], in assay [4], in [5] and in assay [6] was greater than 100 µM in each case. The TGI in assay [7], in assay [8], in assay [12], in assay [13], in assay [9] and in [10] was greater than 100 µM each time. The compound further came in with a TGI in assay [11] greater than 100 µM.
As to `N#CN1CCC=C(c2cc3ccccc3[nH]2)C1`, the TGI is greater than 448 µM in [1]; greater than 448 µM in assay [2]; 427 µM in [3]; greater than 448 µM in [4]; greater than 448 µM in [5]; greater than 448 µM in assay [6]. In addition, the TGI in assay [7], in assay [12], in assay [13], in [9], in assay [10] and in assay [11] was greater than 448 µM in each case.
Regarding `COC1=CC(=O)[C@]2(C)[C@H](C1=O)C(C)[C@H]2c1ccccc1` (stereo partly drawn), the concentration for total growth inhibition (TGI) in assay [1], in assay [2], in [3], in assay [4], in [5] and in assay [6] was greater than 100 µM throughout. The TGI in assay [7], in assay [8], in [12], in assay [13], in assay [9] and in [10] was greater than 100 µM each time. The TGI in assay [11] was greater than 100 µM.
